# According to patent US20100204146A1, “Treatment of Oestrogen Dependant Conditions in Pre-menopausal Women” (PregLem S.A., priority 2007, published 2010):
# Columns and labels:
# [1] = test system: person with peritoneal and ovarian endometriosis; experiment: Endometriosis patient treated with STS-I, then with added progestin; format: in vivo, human
# Experimental: A nulliparous person was diagnosed with a moderate/severe peritoneal and ovarian endometriosis during a laparoscopy performed for chronic pelvic pain, dyspareunia and infertility. Despite careful debulking of the lesions during the laparoscopy, the symptoms persisted and medical treatment is indicated. A STS-I, E2MATE is administered at 1.0 mg/week.
# [2] = test system: female Cynomolgus monkeys (Macaca fascicularis); experiment: 39-week intragastric study in female Cynomolgus monkeys: impact on ovarian cycle and function, microscopic status at necropsy; conditions: for Ovary: Absence of corpora lutea (% of animals) / Ovary: Absence of corpora lutea (no. of animals) / Ovary: Cyst (% of animals) / Ovary: Cyst (no. of animals) / Ovary: Increase in growing follicles (% of animals) / Ovary: Increase in growing follicles (no. of animals): 8 animals, after 39 weeks, necropsy; for menstrual cycle pattern: whole treatment period
# Experimental: Three groups of eight female Cynomolgus monkeys (Macaca fascicularis) each were treated intragastrically over a period of approximately 39 weeks at daily doses of 0.2, 0.8 and 2.0 mg/kg of E2MATE using an application volume of 10 mL/kg. A fourth group (control) received an equivalent volume of the vehicle under the same experimental conditions. […] After 39 weeks of treatment, the microscopic status at necropsy was as follows:
# metastatic breast cancer = experiment: Metastatic breast cancer patient treated with STS-I with GnRH agonist maintained; format: in vivo, human; conditions: daily administration
# Experimental: In a person, a metastatic breast cancer is progressing despite administration of aromatase inhibitor and a GnRH agonist. […] STX64, a STS-I from the coumate family of compound is administered on a daily basis.
# [3] = target: T1, sulfatase activity present in eutopic and ectopic endometrium (Homo sapiens, UniProt P08842); conditions: in vitro; cited from earlier work
# T1 construct: abolish the sulfatase activity present in eutopic and ectopic endometrium; host or cells: eutopic and ectopic endometrium (tissue)
# T1 sequence (P08842 22-583): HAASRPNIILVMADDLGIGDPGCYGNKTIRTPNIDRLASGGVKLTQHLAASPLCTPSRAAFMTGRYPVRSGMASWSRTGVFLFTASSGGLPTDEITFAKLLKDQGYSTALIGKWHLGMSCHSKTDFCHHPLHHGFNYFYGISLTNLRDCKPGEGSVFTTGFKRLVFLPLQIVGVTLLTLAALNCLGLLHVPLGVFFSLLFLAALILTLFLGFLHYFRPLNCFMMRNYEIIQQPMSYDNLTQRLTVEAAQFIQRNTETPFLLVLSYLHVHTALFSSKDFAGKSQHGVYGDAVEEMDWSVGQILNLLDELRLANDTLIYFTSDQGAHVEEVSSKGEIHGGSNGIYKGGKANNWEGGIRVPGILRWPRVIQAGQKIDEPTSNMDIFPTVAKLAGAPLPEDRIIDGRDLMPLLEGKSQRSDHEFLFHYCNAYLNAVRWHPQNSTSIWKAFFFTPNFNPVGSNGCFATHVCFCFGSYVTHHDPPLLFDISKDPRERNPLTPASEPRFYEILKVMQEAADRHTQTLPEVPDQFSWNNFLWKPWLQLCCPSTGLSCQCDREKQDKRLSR
# [4] = E2MATE 1.0 mg/week associated with norgestrel 0.1 mg/day
smiles,measurement,setting,value
"C[C@]12CC[C@@H]3c4ccc(OS(N)(=O)=O)cc4CC[C@H]3[C@@H]1CC[C@@H]2O [E2MATE, Estradiol sulfamate]",endometriosis symptoms,"[1]; 1.0 mg/week, alone",partially relieved
same,serum estradiol (E2),"[1]; 1.0 mg/week, alone",fluctuating serum E2 in the hundred of pg range
same,vaginal bleeding,"[1]; 1.0 mg/week, alone",irregular episodes of mild but painful vaginal bleeding
same,patient's symptoms,[1]; [4],further improvement
same,serum estradiol levels and bleeding episode,[1]; [4],reduction
same,animals became amenorrheic,"[2]; 0.2 mg/kg daily, intragastric, treatment period",2/8
same,Ovary: Absence of corpora lutea (% of animals),[2]; 0.2 mg/kg dose group,(87.5%)
same,Ovary: Absence of corpora lutea (no. of animals),[2]; 0.2 mg/kg dose group,7
same,Ovary: Cyst (% of animals),[2]; 0.2 mg/kg dose group,(12.5%)
same,Ovary: Cyst (no. of animals),[2]; 0.2 mg/kg dose group,1
same,Ovary: Increase in growing follicles (% of animals),[2]; 0.2 mg/kg dose group,(50%)
same,Ovary: Increase in growing follicles (no. of animals),[2]; 0.2 mg/kg dose group,4
same,menstrual cycle pattern,"[2]; 0.8 mg/kg daily, intragastric",persistent amenorrhea in most animals
same,Ovary: Absence of corpora lutea (% of animals),[2]; 0.8 mg/kg dose group,(100%)
same,Ovary: Absence of corpora lutea (no. of animals),[2]; 0.8 mg/kg dose group,8
same,Ovary: Cyst (% of animals),[2]; 0.8 mg/kg dose group,(12.5%)
same,Ovary: Cyst (no. of animals),[2]; 0.8 mg/kg dose group,1
same,Ovary: Increase in growing follicles (% of animals),[2]; 0.8 mg/kg dose group,(12.5%)
same,Ovary: Increase in growing follicles (no. of animals),[2]; 0.8 mg/kg dose group,1
same,menstrual cycle pattern,"[2]; 2.0 mg/kg daily, intragastric",persistent amenorrhea in most animals
same,Ovary: Absence of corpora lutea (% of animals),[2]; 4.0 mg/kg dose group,(100%)
same,Ovary: Absence of corpora lutea (no. of animals),[2]; 4.0 mg/kg dose group,8
same,Ovary: Cyst (% of animals),[2]; 4.0 mg/kg dose group,(0%)
same,Ovary: Cyst (no. of animals),[2]; 4.0 mg/kg dose group,0
same,Ovary: Increase in growing follicles (% of animals),[2]; 4.0 mg/kg dose group,(50%)
same,Ovary: Increase in growing follicles (no. of animals),[2]; 4.0 mg/kg dose group,4
NS(=O)(=O)Oc1ccc2c3c(c(=O)oc2c1)CCCCC3 [STX64],follicular development,metastatic breast cancer,no follicular development is recorded
same,sulfatase activity in eutopic and ectopic endometrium,[3],abolish
